Assay [1] concerns the target T1, Aurora kinase B/Inner centromere protein (Homo sapiens) (UniProt Q96GD4+Q9NQS7).
Description: Binding affinity to human AurB/INCENP assessed as dissociation half life
The target of assay [2] is T2, Aurora kinase B/Inner centromere protein (Homo sapiens, UniProt Q96GD4). Nature of the assay: Inhibition of human AurB/INCENP in PBS using Biotin-Ahx-RARRRLSFFFFAKKK-NH2 as substrate incubated for 30 mins in presence of ATP. The class given is protein-complex assay.
The target in assay [3] is T3, Aurora-C/INCENP (Homo sapiens, UniProt Q9NQS7+Q9UQB9). Nature of the assay: Inhibition of human AurC/INCENP in PBS using Biotin-Ahx-RARRRLSFFFFAKKK-NH2 as substrate incubated for 30 mins in presence of ATP. The class given is protein-complex assay.
T3 sequence (Q9UQB9 whole entry): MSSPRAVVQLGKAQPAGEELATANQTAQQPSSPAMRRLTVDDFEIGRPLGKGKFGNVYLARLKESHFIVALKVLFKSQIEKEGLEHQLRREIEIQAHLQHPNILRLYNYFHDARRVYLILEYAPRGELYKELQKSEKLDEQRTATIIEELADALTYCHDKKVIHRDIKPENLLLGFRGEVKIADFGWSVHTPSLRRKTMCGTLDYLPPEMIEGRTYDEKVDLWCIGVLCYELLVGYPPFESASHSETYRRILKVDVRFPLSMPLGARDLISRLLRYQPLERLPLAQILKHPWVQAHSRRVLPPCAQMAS
T3 sequence (Q9NQS7 whole entry): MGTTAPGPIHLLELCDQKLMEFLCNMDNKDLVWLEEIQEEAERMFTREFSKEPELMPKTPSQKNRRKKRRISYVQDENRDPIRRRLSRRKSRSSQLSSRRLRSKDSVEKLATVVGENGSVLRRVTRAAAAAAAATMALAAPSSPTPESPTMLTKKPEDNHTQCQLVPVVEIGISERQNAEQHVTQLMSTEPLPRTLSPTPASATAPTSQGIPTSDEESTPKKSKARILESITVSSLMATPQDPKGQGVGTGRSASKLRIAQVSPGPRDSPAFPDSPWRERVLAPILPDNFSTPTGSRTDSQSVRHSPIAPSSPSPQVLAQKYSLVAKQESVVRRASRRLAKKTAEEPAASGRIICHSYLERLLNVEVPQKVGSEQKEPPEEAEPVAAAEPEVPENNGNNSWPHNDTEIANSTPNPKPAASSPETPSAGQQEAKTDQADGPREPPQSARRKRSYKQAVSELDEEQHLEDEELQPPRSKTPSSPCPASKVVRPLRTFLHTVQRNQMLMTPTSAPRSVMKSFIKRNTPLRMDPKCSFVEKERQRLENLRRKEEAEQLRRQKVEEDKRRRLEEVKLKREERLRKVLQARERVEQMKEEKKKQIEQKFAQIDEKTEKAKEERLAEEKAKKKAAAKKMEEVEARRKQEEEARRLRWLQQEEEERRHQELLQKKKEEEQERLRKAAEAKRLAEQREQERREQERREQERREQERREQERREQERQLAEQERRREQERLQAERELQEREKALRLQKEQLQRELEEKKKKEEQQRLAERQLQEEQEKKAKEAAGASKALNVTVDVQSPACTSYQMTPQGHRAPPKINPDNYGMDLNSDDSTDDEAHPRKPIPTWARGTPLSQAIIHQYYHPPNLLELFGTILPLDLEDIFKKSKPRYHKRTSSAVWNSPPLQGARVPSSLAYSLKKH
Assay [4] has as its target Vascular endothelial growth factor receptor 1 (Homo sapiens, UniProt P17948). The assay is described as follows: Inhibition of FLT1 (unknown origin).
The target of another assay is Angiopoietin-1 receptor (Homo sapiens, UniProt Q02763). The assay is described as follows: Inhibition of TIE2 (unknown origin).
Sequence of Angiopoietin-1 receptor (Q02763 whole entry): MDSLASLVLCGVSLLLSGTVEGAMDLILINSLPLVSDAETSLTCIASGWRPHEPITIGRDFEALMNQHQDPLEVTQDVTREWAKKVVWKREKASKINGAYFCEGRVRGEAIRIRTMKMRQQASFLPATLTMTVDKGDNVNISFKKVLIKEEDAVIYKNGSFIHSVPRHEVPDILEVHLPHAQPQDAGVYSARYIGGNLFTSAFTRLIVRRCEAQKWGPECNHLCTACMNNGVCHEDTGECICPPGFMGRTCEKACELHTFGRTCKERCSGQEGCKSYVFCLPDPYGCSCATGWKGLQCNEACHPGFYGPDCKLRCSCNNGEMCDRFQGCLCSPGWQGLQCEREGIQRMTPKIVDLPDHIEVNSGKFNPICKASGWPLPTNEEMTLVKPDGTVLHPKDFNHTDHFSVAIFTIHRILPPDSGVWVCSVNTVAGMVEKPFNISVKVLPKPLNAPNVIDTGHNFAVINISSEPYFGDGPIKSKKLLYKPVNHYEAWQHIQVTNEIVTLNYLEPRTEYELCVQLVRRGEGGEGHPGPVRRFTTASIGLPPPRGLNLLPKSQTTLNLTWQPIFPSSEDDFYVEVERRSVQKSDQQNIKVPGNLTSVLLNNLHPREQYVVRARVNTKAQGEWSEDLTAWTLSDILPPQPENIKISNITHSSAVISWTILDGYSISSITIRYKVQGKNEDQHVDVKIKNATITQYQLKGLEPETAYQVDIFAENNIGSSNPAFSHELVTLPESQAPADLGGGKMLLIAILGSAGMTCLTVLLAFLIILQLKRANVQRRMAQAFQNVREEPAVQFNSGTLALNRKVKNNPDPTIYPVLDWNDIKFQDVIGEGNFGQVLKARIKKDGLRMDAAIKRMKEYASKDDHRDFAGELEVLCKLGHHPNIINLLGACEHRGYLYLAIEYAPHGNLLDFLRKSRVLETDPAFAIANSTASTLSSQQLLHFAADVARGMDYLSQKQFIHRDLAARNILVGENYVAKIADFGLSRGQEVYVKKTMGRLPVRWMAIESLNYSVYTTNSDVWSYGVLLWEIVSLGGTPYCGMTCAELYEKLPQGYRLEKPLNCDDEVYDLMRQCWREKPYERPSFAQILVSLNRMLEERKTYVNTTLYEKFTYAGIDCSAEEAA
Assay [5] has as its target Serine/threonine-protein kinase SIK1 (Homo sapiens, UniProt P57059). The assay is described as follows: Inhibition of SIK (unknown origin).
For assay [6], the target named is T2, Aurora kinase B/Inner centromere protein. Nature of the assay: Binding affinity to human AurB/INCENP assessed as inhibition constant using aurora sox peptide as substrate incubated for 60 mins in presence of ATP by fluorescence based assay. The class given is protein-complex assay.
For assay [7], the target named is T3, Aurora-C/INCENP. The assay is described as follows: Binding affinity to human AurC/INCENP assessed as inhibition constant using aurora sox peptide as substrate incubated for 60 mins in presence of ATP by fluorescence based assay. The class given is protein-complex assay.
Assay [8] concerns the target T1, Aurora kinase B/Inner centromere protein (Homo sapiens). The note with it: dose 100.0 nM, time 60.0 min.
The target is the same in assay [9]. As to conditions: dose 100.0 nM, time 60.0 min. This is another data set of the same source.
For assay [10], the target named is Aurora-C/INCENP (Homo sapiens) (UniProt Q9UQB9+Q9NQS7). The note with it: dose 100.0 nM, time 60.0 min.

Calls of active or inactive are those of the source. The calls are words filed in the database; no cut-off is given here.

T2 sequence (Q96GD4 whole entry): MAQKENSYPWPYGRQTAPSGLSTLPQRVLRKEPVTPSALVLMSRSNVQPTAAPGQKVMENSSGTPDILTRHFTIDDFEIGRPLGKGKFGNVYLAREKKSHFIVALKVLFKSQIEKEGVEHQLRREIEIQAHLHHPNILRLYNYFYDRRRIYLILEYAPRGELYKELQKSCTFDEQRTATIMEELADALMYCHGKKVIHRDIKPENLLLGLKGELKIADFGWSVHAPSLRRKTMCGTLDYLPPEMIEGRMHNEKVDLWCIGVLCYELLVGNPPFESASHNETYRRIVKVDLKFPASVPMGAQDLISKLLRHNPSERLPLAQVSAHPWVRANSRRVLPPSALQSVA
T2 sequence (Q9NQS7 whole entry, further chain): as the sequence (Q9NQS7 whole entry) above
Sequence of Serine/threonine-protein kinase SIK1 (P57059 whole entry): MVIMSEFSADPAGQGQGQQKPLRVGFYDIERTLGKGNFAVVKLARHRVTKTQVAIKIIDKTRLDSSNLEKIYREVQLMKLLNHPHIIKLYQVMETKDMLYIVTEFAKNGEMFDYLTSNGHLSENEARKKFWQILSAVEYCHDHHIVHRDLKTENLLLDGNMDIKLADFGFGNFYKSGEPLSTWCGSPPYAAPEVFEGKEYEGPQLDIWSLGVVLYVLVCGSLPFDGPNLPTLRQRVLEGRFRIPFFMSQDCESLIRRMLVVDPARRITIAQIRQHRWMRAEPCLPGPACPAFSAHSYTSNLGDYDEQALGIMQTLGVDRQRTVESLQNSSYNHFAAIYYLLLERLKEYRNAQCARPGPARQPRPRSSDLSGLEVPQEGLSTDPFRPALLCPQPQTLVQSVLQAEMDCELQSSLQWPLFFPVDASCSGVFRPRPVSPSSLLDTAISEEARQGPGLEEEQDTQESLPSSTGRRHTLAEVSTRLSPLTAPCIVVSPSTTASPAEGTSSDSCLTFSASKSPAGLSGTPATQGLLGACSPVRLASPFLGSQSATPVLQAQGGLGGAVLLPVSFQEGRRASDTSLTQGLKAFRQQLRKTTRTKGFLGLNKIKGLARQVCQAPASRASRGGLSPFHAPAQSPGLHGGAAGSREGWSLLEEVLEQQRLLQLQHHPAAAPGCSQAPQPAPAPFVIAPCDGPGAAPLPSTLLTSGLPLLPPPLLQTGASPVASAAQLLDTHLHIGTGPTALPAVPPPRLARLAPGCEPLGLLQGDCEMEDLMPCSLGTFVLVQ
Sequence of Vascular endothelial growth factor receptor 1 (P17948 whole entry): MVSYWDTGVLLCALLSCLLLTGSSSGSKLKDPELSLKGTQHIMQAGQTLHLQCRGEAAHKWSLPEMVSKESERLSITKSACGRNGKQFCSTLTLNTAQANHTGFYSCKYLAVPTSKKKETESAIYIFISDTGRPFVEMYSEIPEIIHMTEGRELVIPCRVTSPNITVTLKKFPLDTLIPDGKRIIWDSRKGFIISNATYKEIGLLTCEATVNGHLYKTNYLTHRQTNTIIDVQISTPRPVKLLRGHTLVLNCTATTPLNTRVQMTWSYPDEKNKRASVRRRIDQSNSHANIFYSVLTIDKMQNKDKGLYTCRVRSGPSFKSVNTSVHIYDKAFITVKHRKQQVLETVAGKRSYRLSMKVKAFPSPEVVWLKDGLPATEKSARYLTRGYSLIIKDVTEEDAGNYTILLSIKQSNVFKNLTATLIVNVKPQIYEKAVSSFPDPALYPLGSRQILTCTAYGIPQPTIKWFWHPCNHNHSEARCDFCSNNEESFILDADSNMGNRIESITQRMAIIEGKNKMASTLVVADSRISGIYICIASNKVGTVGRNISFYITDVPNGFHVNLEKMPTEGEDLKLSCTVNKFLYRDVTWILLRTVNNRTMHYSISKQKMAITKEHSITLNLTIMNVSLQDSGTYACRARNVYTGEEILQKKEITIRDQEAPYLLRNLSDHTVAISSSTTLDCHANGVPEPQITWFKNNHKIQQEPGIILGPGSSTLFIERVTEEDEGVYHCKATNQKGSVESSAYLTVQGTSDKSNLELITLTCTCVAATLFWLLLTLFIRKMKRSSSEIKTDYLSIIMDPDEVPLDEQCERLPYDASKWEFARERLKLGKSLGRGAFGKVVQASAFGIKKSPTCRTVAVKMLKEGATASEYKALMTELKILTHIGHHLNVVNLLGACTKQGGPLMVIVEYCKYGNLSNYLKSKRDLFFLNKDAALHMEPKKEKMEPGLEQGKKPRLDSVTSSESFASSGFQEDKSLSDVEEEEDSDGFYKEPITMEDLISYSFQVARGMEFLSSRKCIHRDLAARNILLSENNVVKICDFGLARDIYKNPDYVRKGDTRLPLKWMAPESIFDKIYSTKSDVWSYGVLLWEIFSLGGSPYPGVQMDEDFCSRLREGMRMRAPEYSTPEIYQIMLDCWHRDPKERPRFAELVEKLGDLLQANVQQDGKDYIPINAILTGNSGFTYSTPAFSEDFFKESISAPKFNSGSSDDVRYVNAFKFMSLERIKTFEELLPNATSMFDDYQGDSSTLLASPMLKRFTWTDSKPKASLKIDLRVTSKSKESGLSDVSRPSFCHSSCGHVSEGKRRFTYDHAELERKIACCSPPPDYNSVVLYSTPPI

With `Cc1cc(Nc2cc(N3CCN(C)CC3)nc(Sc3ccc(NC(=O)C4CC4)cc3)n2)n[nH]1`, in assay [1], the T1/2 was 25 min.
As to `CCN(CCCOc1ccc2c(Nc3cc(CC(=O)Nc4cccc(F)c4)[nH]n3)ncnc2c1)CCOP(=O)(O)O`, the T1/2 in assay [1] is 15 min.
For the compound `CCn1cc(-c2ccnc3[nH]c(-c4cccc(CN(C)C)c4)cc23)c(-c2ccc(NC(=O)N(C)C)cc2)n1` [GSK-1070916], the IC50 in assay [2] was 3.5 nM; on Aurora-C/INCENP [3], 6.5 nM; in assay [4] it was 42 nM; against Angiopoietin-1 receptor, 59 nM; in assay [5], 70 nM. Further, the Ki in assay [6] was 0.38 nM; at Aurora-C/INCENP [7] it was 1.45 nM. The inhibition entry in assay [8] is “Active”. The T1/2 is over 480 min in assay [9] and 270 min in [10].

The term IC50 denotes the concentration at which inhibition is half-maximal. As usually defined, the Ki is the equilibrium dissociation constant of an inhibitor or competing ligand from its target.

Source of the values: ChEMBL document CHEMBL5653602, “Biochemical characterization of GSK1070916, a potent and selective inhibitor of Aurora B and Aurora C kinases with an extremely long residence time1” (Biochem J, 2009).
